Like-named read-outs stand apart in the source and are kept apart here.
Columns and labels:
Assay in all cases: SelectScreen Kinase Profiling, single point inhibition and IC50 for off-target kinases
Assay type in all cases: biochemical
off-target kinases [1] = molecular target: off-target kinases (Homo sapiens, UniProt P00533); conditions: EGFR (ErbB1), ZLYTE, ATP Km app
off-target kinases [2] = molecular target: off-target kinases (Homo sapiens, UniProt P09619); conditions: PDGFRB (PDGFR beta), ZLYTE, ATP Km app
off-target kinases [3] = molecular target: off-target kinases (Homo sapiens, UniProt Q16512); conditions: PKN1 (PRK1); Cmpd1 1000 μM; ATP Km app; ZLYTE
off-target kinases [4] = molecular target: off-target kinases (Homo sapiens, UniProt Q16584); conditions: MAP3K11 (MLK3), LanthaScreen Binding
off-target kinases [5] = molecular target: T1, off-target kinases (Homo sapiens, UniProt Q9NRM7); conditions: LATS2, LanthaScreen Binding
T1 sequence (Q9NRM7 1-1088): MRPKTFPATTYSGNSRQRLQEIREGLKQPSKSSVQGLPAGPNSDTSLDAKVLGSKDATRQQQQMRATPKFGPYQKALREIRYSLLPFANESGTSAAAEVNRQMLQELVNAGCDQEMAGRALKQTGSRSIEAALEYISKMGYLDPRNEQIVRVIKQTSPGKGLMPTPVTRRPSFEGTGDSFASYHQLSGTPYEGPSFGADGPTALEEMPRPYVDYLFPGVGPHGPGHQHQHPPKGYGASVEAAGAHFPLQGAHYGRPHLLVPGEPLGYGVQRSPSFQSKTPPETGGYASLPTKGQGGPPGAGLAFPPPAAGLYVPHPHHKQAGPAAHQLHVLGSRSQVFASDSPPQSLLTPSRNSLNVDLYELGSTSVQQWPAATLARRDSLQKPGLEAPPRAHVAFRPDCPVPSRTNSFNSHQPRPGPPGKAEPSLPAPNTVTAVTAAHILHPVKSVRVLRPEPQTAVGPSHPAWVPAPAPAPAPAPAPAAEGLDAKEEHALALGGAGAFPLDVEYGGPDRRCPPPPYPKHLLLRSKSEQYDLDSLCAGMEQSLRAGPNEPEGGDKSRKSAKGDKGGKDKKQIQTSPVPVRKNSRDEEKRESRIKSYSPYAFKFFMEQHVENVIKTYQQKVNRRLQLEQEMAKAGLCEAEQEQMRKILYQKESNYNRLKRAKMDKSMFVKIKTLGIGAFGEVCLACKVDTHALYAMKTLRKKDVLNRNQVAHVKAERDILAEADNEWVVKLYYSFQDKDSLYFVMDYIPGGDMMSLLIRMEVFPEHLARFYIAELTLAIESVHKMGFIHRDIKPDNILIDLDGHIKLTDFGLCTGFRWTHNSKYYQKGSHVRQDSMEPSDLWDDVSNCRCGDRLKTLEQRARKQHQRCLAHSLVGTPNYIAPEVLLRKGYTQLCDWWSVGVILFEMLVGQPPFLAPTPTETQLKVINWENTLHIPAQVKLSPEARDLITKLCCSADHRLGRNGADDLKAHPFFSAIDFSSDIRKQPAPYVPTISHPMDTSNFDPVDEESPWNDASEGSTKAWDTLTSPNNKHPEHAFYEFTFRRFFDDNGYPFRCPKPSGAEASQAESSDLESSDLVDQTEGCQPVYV

off-target kinases [6] = molecular target: off-target kinases (Homo sapiens, UniProt Q9Y463); conditions: DYRK1B, ZLYTE, ATP Km app
off-target kinases [7] = molecular target: off-target kinases (Homo sapiens, UniProt Q9Y6M4); conditions: CSNK1G3 (CK1 gamma 3), ZLYTE, ATP Km app

Chain of off-target kinases (Homo sapiens, UniProt Q16584) (Q16584 whole entry): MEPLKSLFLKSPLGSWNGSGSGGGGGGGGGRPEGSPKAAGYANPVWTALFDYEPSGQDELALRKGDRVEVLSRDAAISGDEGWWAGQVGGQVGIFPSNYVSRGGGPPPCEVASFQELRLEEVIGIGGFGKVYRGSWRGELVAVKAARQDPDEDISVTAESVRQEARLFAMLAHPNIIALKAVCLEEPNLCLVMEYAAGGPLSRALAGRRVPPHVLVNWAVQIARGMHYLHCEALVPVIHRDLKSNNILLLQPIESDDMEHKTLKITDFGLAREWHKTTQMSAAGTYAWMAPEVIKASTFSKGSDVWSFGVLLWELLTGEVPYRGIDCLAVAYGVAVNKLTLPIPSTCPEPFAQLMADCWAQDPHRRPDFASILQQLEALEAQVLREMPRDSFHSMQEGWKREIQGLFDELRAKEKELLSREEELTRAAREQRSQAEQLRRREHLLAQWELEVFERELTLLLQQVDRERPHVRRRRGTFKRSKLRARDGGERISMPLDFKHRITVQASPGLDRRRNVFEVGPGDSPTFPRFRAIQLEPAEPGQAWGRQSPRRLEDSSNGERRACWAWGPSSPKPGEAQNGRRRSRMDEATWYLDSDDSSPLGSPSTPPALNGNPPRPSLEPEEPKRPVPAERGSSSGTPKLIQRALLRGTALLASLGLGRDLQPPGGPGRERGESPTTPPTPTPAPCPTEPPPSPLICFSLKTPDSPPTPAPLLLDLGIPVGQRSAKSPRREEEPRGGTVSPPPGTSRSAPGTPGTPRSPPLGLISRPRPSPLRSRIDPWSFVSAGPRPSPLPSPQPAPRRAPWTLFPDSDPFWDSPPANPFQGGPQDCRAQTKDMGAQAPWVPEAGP
Chain of off-target kinases (Homo sapiens, UniProt Q9Y463) (Q9Y463 whole entry): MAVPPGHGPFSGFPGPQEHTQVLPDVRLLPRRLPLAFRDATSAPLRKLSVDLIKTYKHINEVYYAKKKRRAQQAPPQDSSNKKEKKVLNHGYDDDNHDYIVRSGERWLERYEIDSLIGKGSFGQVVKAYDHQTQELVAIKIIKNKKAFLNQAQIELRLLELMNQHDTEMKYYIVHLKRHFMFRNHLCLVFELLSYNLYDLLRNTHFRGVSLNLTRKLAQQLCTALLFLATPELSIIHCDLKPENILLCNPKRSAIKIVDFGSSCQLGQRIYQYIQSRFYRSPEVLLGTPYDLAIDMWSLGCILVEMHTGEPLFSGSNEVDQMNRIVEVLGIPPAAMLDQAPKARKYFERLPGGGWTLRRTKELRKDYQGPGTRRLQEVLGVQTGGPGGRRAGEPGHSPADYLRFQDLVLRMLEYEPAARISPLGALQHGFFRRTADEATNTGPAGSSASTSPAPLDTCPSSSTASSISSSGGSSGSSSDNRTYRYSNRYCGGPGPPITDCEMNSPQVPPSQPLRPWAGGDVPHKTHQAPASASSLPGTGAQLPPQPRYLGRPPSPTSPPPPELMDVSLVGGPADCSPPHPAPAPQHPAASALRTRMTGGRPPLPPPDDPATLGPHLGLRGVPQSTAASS
Chain of off-target kinases (Homo sapiens, UniProt Q16512) (Q16512 whole entry): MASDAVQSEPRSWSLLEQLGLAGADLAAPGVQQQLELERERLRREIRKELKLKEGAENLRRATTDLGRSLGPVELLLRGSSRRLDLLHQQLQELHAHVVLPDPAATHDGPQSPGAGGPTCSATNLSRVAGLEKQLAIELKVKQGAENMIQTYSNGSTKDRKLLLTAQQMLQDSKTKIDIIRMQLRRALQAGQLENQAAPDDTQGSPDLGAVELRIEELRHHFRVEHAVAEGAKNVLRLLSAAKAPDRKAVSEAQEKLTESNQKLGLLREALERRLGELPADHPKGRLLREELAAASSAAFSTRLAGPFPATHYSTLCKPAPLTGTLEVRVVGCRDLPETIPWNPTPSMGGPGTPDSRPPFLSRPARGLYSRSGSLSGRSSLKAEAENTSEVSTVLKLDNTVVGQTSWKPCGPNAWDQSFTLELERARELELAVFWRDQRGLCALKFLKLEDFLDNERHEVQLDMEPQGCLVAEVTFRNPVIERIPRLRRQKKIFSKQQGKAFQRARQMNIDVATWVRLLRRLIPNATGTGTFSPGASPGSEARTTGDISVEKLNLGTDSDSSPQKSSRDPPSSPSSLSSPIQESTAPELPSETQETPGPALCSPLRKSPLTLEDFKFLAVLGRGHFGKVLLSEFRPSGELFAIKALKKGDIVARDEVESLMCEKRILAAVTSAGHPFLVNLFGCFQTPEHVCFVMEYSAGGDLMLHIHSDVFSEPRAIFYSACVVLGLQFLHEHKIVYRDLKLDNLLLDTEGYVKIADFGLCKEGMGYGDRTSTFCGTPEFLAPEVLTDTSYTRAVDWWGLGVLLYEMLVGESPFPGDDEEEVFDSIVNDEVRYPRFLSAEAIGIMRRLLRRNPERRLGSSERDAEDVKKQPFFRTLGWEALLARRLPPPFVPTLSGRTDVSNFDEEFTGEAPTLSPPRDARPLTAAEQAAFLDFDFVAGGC
Chain of off-target kinases (Homo sapiens, UniProt P09619) (P09619 33-1106): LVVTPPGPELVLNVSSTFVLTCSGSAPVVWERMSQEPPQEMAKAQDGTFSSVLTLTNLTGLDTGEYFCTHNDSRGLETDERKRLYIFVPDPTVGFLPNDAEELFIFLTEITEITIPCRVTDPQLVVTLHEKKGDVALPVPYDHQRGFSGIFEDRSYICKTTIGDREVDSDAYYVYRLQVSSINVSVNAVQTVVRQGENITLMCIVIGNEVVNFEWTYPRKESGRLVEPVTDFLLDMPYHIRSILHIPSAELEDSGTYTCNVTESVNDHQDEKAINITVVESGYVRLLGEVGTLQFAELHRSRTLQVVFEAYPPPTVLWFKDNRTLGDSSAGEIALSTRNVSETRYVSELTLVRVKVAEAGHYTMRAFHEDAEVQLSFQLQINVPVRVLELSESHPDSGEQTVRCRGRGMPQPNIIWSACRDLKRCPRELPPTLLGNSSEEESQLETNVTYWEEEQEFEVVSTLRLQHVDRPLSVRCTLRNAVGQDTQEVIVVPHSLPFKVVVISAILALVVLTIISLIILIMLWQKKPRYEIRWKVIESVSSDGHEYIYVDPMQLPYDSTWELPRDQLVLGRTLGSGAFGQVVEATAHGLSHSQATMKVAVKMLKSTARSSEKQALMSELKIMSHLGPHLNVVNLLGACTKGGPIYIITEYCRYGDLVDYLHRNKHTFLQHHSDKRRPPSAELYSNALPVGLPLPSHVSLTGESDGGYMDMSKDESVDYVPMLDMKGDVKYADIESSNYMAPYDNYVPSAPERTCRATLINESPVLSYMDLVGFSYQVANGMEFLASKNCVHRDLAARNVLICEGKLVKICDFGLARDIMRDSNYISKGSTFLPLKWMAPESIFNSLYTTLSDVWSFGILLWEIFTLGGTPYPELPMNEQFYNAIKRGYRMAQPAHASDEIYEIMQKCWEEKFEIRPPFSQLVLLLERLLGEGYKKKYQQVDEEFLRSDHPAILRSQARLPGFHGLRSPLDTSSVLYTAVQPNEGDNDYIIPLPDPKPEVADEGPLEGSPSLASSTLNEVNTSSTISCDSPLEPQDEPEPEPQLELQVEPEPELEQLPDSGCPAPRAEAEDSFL
Chain of off-target kinases (Homo sapiens, UniProt P00533) (P00533 25-1210): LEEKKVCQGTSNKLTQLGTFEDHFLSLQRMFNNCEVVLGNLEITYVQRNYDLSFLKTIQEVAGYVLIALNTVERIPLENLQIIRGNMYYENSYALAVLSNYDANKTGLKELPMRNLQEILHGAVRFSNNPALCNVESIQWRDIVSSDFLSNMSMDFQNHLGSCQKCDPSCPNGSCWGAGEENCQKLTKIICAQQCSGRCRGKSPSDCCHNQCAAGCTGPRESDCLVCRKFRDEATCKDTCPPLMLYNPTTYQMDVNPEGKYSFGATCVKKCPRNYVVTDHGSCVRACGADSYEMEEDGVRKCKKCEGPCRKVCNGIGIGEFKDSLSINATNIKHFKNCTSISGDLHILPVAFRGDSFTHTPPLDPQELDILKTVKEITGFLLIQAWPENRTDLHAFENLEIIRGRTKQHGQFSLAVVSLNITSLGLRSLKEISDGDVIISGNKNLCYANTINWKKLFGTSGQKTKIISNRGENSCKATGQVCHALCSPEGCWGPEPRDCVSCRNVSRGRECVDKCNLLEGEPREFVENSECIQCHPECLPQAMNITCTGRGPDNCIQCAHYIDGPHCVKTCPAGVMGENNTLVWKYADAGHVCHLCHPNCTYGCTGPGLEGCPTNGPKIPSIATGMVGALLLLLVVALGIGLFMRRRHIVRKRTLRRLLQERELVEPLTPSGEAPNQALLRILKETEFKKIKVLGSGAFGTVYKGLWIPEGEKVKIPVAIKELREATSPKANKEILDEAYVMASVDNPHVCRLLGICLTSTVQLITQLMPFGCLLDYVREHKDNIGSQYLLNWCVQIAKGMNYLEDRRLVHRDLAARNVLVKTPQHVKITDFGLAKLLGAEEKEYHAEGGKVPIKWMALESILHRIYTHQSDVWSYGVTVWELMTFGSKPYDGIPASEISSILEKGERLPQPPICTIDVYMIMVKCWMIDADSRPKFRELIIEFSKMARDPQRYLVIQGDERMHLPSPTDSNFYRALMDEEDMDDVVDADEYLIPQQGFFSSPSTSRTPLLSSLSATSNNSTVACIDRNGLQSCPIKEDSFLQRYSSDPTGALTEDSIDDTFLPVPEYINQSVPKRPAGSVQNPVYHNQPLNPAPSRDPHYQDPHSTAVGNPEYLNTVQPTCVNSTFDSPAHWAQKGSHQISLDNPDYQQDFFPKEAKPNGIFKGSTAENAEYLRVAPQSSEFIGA

`N#Cc1cc(-c2ncnc(Nc3ccc(N4CCN(C5COC5)CC4)cc3)n2)ccc1OC1CCOCC1` [Compound 1, 5-(4-((4-(4-(oxetan-3-yl)piperazin-1-yl)phenyl)amino)-1,3,5-triazin-2-yl)-2-((tetrahydro-2H-pyran-4-yl)oxy)benzonitrile] gave an inhibition (off-target kinases [1]; read-out: % Inhibition 1) of 10%, an inhibition (off-target kinases [1]; read-out: % Inhibition 2) of 9% and an inhibition (off-target kinases [1]; read-out: % Inhibition Avg) of 9%. It also gave an inhibition (off-target kinases [2]; read-out: % Inhibition 1) of 34%, an inhibition (off-target kinases [2]; read-out: % Inhibition 2) of 30% and an inhibition (off-target kinases [2]; read-out: % Inhibition Avg) of 32%. The “% Inhibition 1” value (off-target kinases [3]) was −6%, the “% Inhibition 2” value (off-target kinases [3]) was −4% and the “% Inhibition Avg” value (off-target kinases [3]) was −5%. For the same molecule, the inhibition (off-target kinases [4]; read-out: % Inhibition 1) was 24%, the inhibition (off-target kinases [4]; read-out: % Inhibition 2) was 29% and the inhibition (off-target kinases [4]; read-out: % Inhibition Avg) was 26%. For the same molecule, the inhibition (off-target kinases [5]; read-out: % Inhibition 1) was 23%, the inhibition (off-target kinases [5]; read-out: % Inhibition 2) was 25% and the inhibition (off-target kinases [5]; read-out: % Inhibition Avg) was 24%. For the same molecule, the inhibition (off-target kinases [6]; read-out: % Inhibition 1) was 14%, the inhibition (off-target kinases [6]; read-out: % Inhibition 2) was 9% and the inhibition (off-target kinases [6]; read-out: % Inhibition Avg) was 11%. It also gave an inhibition (off-target kinases [7]; read-out: % Inhibition 1) of 4%, an inhibition (off-target kinases [7]; read-out: % Inhibition 2) of -2% and an inhibition (off-target kinases [7]; read-out: % Inhibition Avg) of 1%.
